Test results reported in US20120295920A1, “5-AMINO-4-HYDROXYPENTOYL AMIDES” (priority 2009, published 2012).
Where two headings read alike, the source gives them in different places.

Legend:
[1] = tested on: HIV-1 IIIB; test: 50% HS-Rezazurin: antiviral assay in the presence of 50% human serum, MT-4 cells, resazurin cell viability; type: cell-based
Experimental: For the Antiviral assay in the presence of 50% human serum MT-4 cells were infected with HIV-1 IIIB at a MOI of 0.001 to 0.01 CCID50/cell in RPMI1640 medium. Following 1 h of incubation, cells were washed and plated into a 96-well plate containing serial dilutions of compound in the presence of 10% fetal calf serum (FCS), or 50% human serum. After 4 days incubation, the EC50 in the presence of 50% human serum was determined by a cell viability assay using resazurin.
The last column lists the results for the wild-type strain IIB in the presence of 50% human serum MT-4 cells.

[2] = tested on: mock-infected MT4 cells; test: General toxicity assay on mock-infected MT4 cells with CMV-EGFP reporter (CC50); type: cell-based
[3] = tested on: HIV-1 Strain C (G048G/V, V082A); test: microbe, parasite or virus in culture; type: cell-based; settings: clinical isolate Strain C; read-out: C EC50
Experimental: (§1) MT4-LTR-EGFP cells were obtained by transfecting MT4 cells with a selectable construct encompassing the sequences coding for the HIV long terminal repeat (LTR) as a promoter for the expression of enhanced green fluorescent protein (EGFP) and subsequent selection of permanently transfected cells.
(§2) The antiviral activity on different HIV-1 strains, was determined in a cell-based virus replication assay. Here MT4-LTR-EGFP cells (150,000 cells/ml) are infected (multiplicity of infection [MOI] of 0.0025) in the presence or absence of different inhibitor concentrations. Two methodologies for read-out were used, either quantification of GFP-fluoresence on day 3 post-infection, or quantification of cell-viability using rezazurin (as described by Fields, R. D., and M. V. Lancaster (1993) Am. Biotechnol. Lab. 11:48-50) on day 4 post infection.
(§3) In the following Table, Strains A, B, and C are clinical isolates that include the following protease inhibitor resistance mutations in the protease domain (background mutations are not mentioned).

[4] = tested on: HIV-1 Strain B (M046I, I050V); test: microbe, parasite or virus in culture; type: cell-based; settings: clinical isolate Strain B; read-out: B EC50
Experimental: as §1, §2, §3

[5] = tested on: HIV-1 Strain A (M046I, I084V); test: microbe, parasite or virus in culture; type: cell-based; settings: clinical isolate Strain A; read-out: A EC50
Experimental: as §1, §2, §3

[6] = tested on: HIV-1 wild-type strain; test: General antiviral assay, cell-based virus replication in MT4-LTR-EGFP cells, wild-type strain
Experimental: as §1, §2

[7] = mock-infected MT4 cells with CMV-EGFP reporter, read-out: TOX-MT4CMV (CC50)
[8] = wild-type strain IIIB, MT4-LTR-EGFP cells
[9] = MT4LTR cells, read-out: TOX-MT4LTR (CC50)

Compound	EC50 [1] [nM]	CC50 [2, 7] [nM]	EC50 [3] [nM]	EC50 [4] [nM]	EC50 [5] [nM]	EC50 [6, 8] [nM]	CC50 [2, 9] [nM]	EC50 ([6]; read-out: HIV-IIIB EC50) [nM]
COC(=O)NC(C(=O)NC(Cc1ccc(-c2ccc(N(C)C)nc2)cc1)C(O)CC(Cc1ccccc1F)C(=O)NC1c2cc(F)cc(F)c2OCC1O)C(C)(C)C (centres unmarked) [Compound 10]	20.1	> 32000	1.7	2.5	4	3.2	–	–
COC(=O)NC(C(=O)NC(Cc1ccc(-c2cc(C)nc(C3CC3)c2)cc1)C(O)CC(Cc1ccccc1F)C(=O)NC1c2cc(Cl)ccc2OCC1O)C(C)(C)C (centres unmarked) [Compound 21]	34.9	> 32000	3.6	3.2	3.8	6.1	–	–
COC(=O)N[C@H](C(=O)N[C@@H](Cc1ccc(-c2cncc(N(C)C)n2)cc1)[C@@H](O)C[C@@H](Cc1ccccc1F)C(=O)N[C@H]1c2cc(Cl)ccc2OC[C@H]1O)C(C)(C)C [Compound 25]	26.4	> 32000	2.5	2.7	4.6	4.9	–	–
COC(=O)NC(C(=O)NC(Cc1ccc(-c2cnc(C)s2)cc1)C(O)CC(Cc1ccccc1F)C(=O)NC1c2cc(Cl)ccc2OCC1O)C(C)(C)C (centres unmarked) [Compound 11]	22.4	> 32000	2.1	3.5	3.9	4.2	–	–
COCCOC(=O)N[C@H](C(=O)N[C@@H](Cc1ccc(-c2ccc(OC)nc2)cc1)[C@@H](O)C[C@@H](Cc1ccccc1F)C(=O)N[C@H]1c2cc(Cl)ccc2OC[C@H]1O)C(C)(C)C [Compound 55]	12.5	–	1.2	1.5	2.1	2.7	> 32000	–
COc1ccc(-c2ccc(C[C@H](NC(=O)O[C@H]3CO[C@H]4OCC[C@H]43)[C@@H](O)C[C@@H](Cc3ccccc3F)C(=O)N[C@H]3c4cc(F)ccc4OC[C@H]3O)cc2)cn1 [Compound 80]	10.9	–	0.8	1.1	1.5	2.4	> 32000	–
COC(=O)NC(C(=O)NC(Cc1ccc(-c2cc(C)nc(C)c2)cc1)C(O)CC(Cc1ccccc1F)C(=O)NC1c2cc(Cl)ccc2OCC1O)C(C)(C)C (centres unmarked) [Compound 12]	35.7	> 32000	2.2	3	3.7	4	–	–
COC(=O)NC(C(=O)NC(Cc1ccc(-c2ccc(OC)nc2)cc1)C(O)CC(Cc1ccccc1F)C(=O)NC1c2ccccc2OCC1O)C(C)(C)C (centres unmarked) [Compound 16]	6.6	> 32000	1.1	1.3	2	2.5	–	–
COc1ccc(-c2ccc(C[C@H](NC(=O)O[C@H]3CO[C@H]4OCC[C@H]43)[C@@H](O)C[C@@H](Cc3ccccc3F)C(=O)N[C@H]3c4cc(Cl)cc(F)c4OC[C@H]3O)cc2)cn1 [Compound 81]	13.4	–	1.3	2.4	2.8	4.1	> 32000	–
COC(=O)NC(C(=O)NC(Cc1ccc(-c2ccc(OC)nc2)cc1)C(O)CC(Cc1ccccc1F)C(=O)NC1C(C)CCC1O)C(C)(C)C (centres unmarked) [Compound 99]	3.3	–	0.9	0.6	1.7	1.1	> 32000	–
COC(=O)N[C@H](C(=O)N[C@@H](Cc1ccc(-c2ccc(N(C)C)nc2)cc1)[C@@H](O)C[C@@H](Cc1cccc(OC)c1)C(=O)N[C@H]1c2cc(F)ccc2OC[C@H]1O)C(C)(C)C [Compound 26]	15.4	> 32000	3.2	3.4	4.2	5	–	–
COC(=O)NC(C(=O)NC(Cc1ccc(-c2ccnc(C)c2)cc1)C(O)CC(Cc1cccc(Cl)c1)C(=O)NC1c2ccccc2OCC1O)C(C)(C)C (centres unmarked) [Compound 1]	39.3	> 32000	3.7	4.8	5.7	–	–	7.7
COC(=O)N[C@H](C(=O)N[C@@H](Cc1ccc(-c2csc(OC)n2)cc1)[C@@H](O)C[C@@H](Cc1ccccc1F)C(=O)N[C@H]1c2cc(Cl)ccc2OC[C@H]1O)C(C)(C)C [Compound 29]	13.7	10000	3.1	3.4	6.6	5.5	–	–
COC(=O)NC(C(=O)NC(Cc1ccc(-c2cnc(C)s2)cc1)C(O)CC(Cc1cccc(Cl)c1)C(=O)NC1c2cc(Cl)ccc2OCC1O)C(C)(C)C (centres unmarked) [Compound 6]	15.2	> 32000	1.5	2.7	3.9	3.2	–	–
COC(=O)N[C@H](C(=O)N[C@@H](Cc1ccc(-c2ccc(OC)nc2)cc1)[C@@H](O)C[C@@H](Cc1cccc(OC(F)(F)F)c1)C(=O)N[C@H]1c2ccccc2OC[C@H]1O)C(C)(C)C [Compound 41]	10.5	> 32000	1.1	1.2	2.4	3	> 32000	–
COC(=O)N[C@H](C(=O)N[C@@H](Cc1ccc(-c2ccnc(C(F)(F)F)c2)cc1)[C@@H](O)C[C@@H](Cc1ccccc1F)C(=O)N[C@H]1c2cc(Cl)ccc2OC[C@H]1O)C(C)(C)C [Compound 31]	26.4	> 32000	3.4	3.2	5	7	–	–
COC(=O)N[C@H](C(=O)N[C@@H](Cc1ccc(-c2cnc(N(C)C)nc2)cc1)[C@@H](O)C[C@@H](Cc1ccccc1F)C(=O)N[C@H]1c2cc(Cl)ccc2OC[C@H]1O)C(C)(C)C [Compound 43]	10.6	–	1.1	1	1.7	2	> 32000	–
Cc1cccc(C)c1OCC(=O)N[C@@H](Cc1ccccc1)[C@@H](O)C[C@H](Cc1ccccc1)NC(=O)[C@H](C(C)C)N1CCCNC1=O [LPV]	61	20000	31	320	110	13	> 32000	–
COC(=O)N[C@H](C(=O)N[C@@H](Cc1ccc(-c2ccc(OC)nc2)cc1)[C@@H](O)C[C@@H](Cc1ccccc1F)C(=O)N[C@H]1c2cccc(Cl)c2OC[C@H]1O)C(C)(C)C [Compound 45]	5.2	–	0.7	0.8	1.2	3.5	> 32000	–
COC(=O)N[C@H](C(=O)N[C@@H](Cc1ccc(-c2ccc(OC)nc2)cc1)[C@@H](O)C[C@@H](Cc1ccccc1Cl)C(=O)N[C@H]1c2ccsc2CC[C@H]1O)C(C)(C)C [Compound 95]	5.9	–	1	1.3	2.2	1.5	23000	–
COc1ccc(-c2ccc(C[C@H](NC(=O)O[C@H]3CO[C@H]4OCC[C@H]43)[C@@H](O)C[C@@H](Cc3ccccc3F)C(=O)N[C@H]3[C@H](C)CCC[C@H]3O)cc2)cn1 [Compound 82]	5.1	–	0.7	0.8	1.1	1.8	> 27000	–
COCCOC(=O)N[C@H](C(=O)N[C@@H](Cc1ccc(-c2ccc(N(C)C)nc2)cc1)[C@@H](O)C[C@@H](Cc1ccccc1F)C(=O)N[C@H]1c2cc(F)ccc2OC[C@H]1O)C(C)(C)C [Compound 34]	10	> 32000	1.3	1.5	2	2.7	> 32000	–
COC(=O)N[C@H](C(=O)N[C@@H](Cc1ccc(-c2ccc(N(C)C)nc2)cc1)[C@@H](O)C[C@@H](Cc1cccc(F)c1)C(=O)N[C@H]1c2ccccc2OC[C@H]1O)C(C)(C)C [Compound 36]	14.3	> 32000	1.3	1.4	2.4	2.9	> 32000	–
COC(=O)NC(C(=O)NC(Cc1ccc(-c2ccc(N(C)C)nc2)cc1)C(O)CC(Cc1cccc(Cl)c1)C(=O)NC1c2cc(F)ccc2OCC1O)C(C)(C)C (centres unmarked) [Compound 13]	22.6	> 32000	2.4	3	4.6	4.7	–	–
COC(=O)N[C@H](C(=O)N[C@@H](Cc1ccc(-c2ccc(OC)nc2)cc1)[C@@H](O)C[C@@H](Cc1cccc(OC)c1)C(=O)N[C@H]1c2cc(Cl)ccc2OC[C@H]1O)C(C)(C)C [Compound 27]	10.7	> 32000	1.6	2.2	2.8	3.1	> 32000	–
